± gives the standard deviation of the averaged measurements.
Assays:
Experiment in all cases: level (log10 ratio to DMSO vehicle control); higher = higher biomarker level / cell amount than vehicle control
Conditions in all cases: in DMSO
[1] = compound: NC(=O)C(F)(F)C(F)(F)C(F)(F)C(F)F
Protocol: (§1)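 BioMAP Diversity Plus panel of 12 human primary cell co-culture systems (3C, 4H, LPS, SAg, BT, BF4T, BE3C, CASM3C, HDF3CGF, KF3CT, MyoF, Mphg). Compounds were added 1 h before stimulation and left for 24 h (MyoF 48 h; BT 72 h for soluble read-outs or 6 d for IgG). Biomarkers were read by ELISA, cytotoxicity by SRB, PBMC viability and proliferation by Alamar Blue. Each well value was divided by the mean of 8 DMSO control wells on the same plate and log10 transformed; duplicate blinded samples were tested at 4 concentrations.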

[2] = compound: NS(=O)(=O)C(F)(F)C(F)(F)C(F)(F)C(F)(F)C(F)(F)C(F)(F)F [Perfluorohexanesulfonamide]
Protocol: as §1

[3] = compound: C=C(C)C(=O)OCCC(F)(F)C(F)(F)C(F)(F)C(F)(F)C(F)(F)C(F)(F)F [6:2 Fluorotelomer methacrylate]
Protocol: as §1

Heptafluorobutyl iodide = compound: FC(F)(F)C(F)(F)C(F)(F)CI [Heptafluorobutyl iodide]
Protocol: as §1

[4] = compound: COC(=O)C(F)(F)C(F)(F)OC(F)(C(F)(F)F)C(F)(F)OC(F)=C(F)F [Methyl perfluoro(3-(1-ethenyloxypropan-2-yloxy)propanoate)]
Protocol: as §1

[5] = compound: FC(F)(F)C(F)(F)CNCC(F)(F)C(F)(F)F [Bis(1H,1H-perfluoropropyl)amine]
Protocol: as §1

[6] = compound: O=C(O)C(F)(F)C(F)(F)C(F)(F)C(F)(F)C(F)(F)C(F)(F)C(F)(F)C(F)(F)C(F)(F)C(F)F [11-H-Perfluoroundecanoic acid]
Protocol: as §1

| Test System | level (log10) ([1]; 6700 nM) | level (log10) ([1]; 20000 nM) | level (log10) ([1]; 60000 nM) | level (log10) ([2]; 6700 nM) | level (log10) ([2]; 20000 nM) | level (log10) ([2]; 60000 nM) | level (log10) ([3]; 6700 nM) | level (log10) ([3]; 20000 nM) | level (log10) ([3]; 60000 nM) | level (log10) (Heptafluorobutyl iodide; 6700 nM) | level (log10) (Heptafluorobutyl iodide; 20000 nM) | level (log10) (Heptafluorobutyl iodide; 60000 nM) | level (log10) ([4]; 6700 nM) | level (log10) ([4]; 20000 nM) | level (log10) ([5]; 6700 nM) | level (log10) ([5]; 20000 nM) | level (log10) ([5]; 60000 nM) | level (log10) ([6]; 6700 nM) | level (log10) ([6]; 20000 nM) |
| --- | --- | --- | --- | --- | --- | --- | --- | --- | --- | --- | --- | --- | --- | --- | --- | --- | --- | --- | --- |
| 3C:CCL2/MCP-1 | -0.01 ± 0.013 | -0.0135 ± 0.011 | 0.015 ± 0.042 | 0.0075 ± 0.0021 | 0.001 ± 0.014 | -0.0255 ± 0.032 | 0.01 ± 0.051 | -0.0025 ± 0.016 | 0.022 ± 0.028 | 0.014 ± 0.051 | -0.014 ± 0.041 | 0.007 ± 0.037 | 0.0045 ± 0.0064 | 0.0175 ± 0.032 | 0.004 ± 0.031 | -0.0225 ± 0.012 | 0.006 ± 0.016 | -0.0085 ± 0.0035 | 0 ± 0.017 |
| 3C:CD62E/E-Selectin | -0.0055 ± 0.022 | -0.027 ± 0.0014 | -0.016 ± 0.018 | -0.0065 ± 0.016 | -0.034 ± 0.0014 | -0.0595 ± 0.013 | -0.0145 ± 0.015 | -0.01 ± 0.033 | -0.0135 ± 0.035 | -0.012 ± 0.024 | -0.0115 ± 0.0021 | -0.0165 ± 0.03 | -0.034 ± 0.011 | -0.031 ± 0.013 | -0.0115 ± 0.0092 | -0.0105 ± 0.022 | 0.008 ± 0.024 | -0.0045 ± 0.025 | 0.0205 ± 0.013 |
| 3C:CD87/uPAR | -0.0235 ± 0.036 | -0.022 ± 0.03 | -0.023 ± 0.027 | -0.0335 ± 0.0035 | -0.0565 ± 0.036 | -0.137 ± 0.035 | 0.003 ± 0.035 | 0.004 ± 0.034 | 0.0195 ± 0.039 | -0.0375 ± 0.0092 | -0.05 ± 0.051 | -0.032 ± 0.041 | 0.01 ± 0.041 | 0.031 ± 0.013 | 0.021 ± 0.0028 | 0.0045 ± 0.015 | -0.0075 ± 0.0064 | -0.0065 ± 0.018 | 0.0045 ± 0.023 |
| 3C:CD106/VCAM-1 | -0.001 ± 0.024 | 0.0135 ± 0.0021 | 0.007 ± 0.016 | -0.008 ± 0.0014 | -0.0125 ± 0.0092 | -0.025 ± 0.016 | -0.0265 ± 0.026 | -0.029 ± 0.037 | -0.0185 ± 0.043 | -0.0115 ± 0.00071 | -0.0045 ± 0.028 | -0.0045 ± 0.0078 | -0.016 ± 0.0057 | -0.0235 ± 0.015 | -0.016 ± 0.027 | -0.027 ± 0.037 | -0.0025 ± 0.03 | -0.0105 ± 0.023 | -0.011 ± 0.0099 |
| 3C:CD141/Thrombomodulin | -0.0285 ± 0.074 | 0 ± 0.03 | -0.0075 ± 0.026 | -0.04 ± 0.023 | -0.045 ± 0.02 | 0.0135 ± 0.033 | -0.0155 ± 0.042 | -0.014 ± 0.048 | -0.072 ± 0.014 | -0.0335 ± 0.04 | -0.0305 ± 0.005 | -0.025 ± 0.014 | -0.036 ± 0.02 | -0.028 ± 0.034 | 0.0205 ± 0.043 | 0.0255 ± 0.04 | 0.046 ± 0.058 | -0.0065 ± 0.005 | -0.0255 ± 0.033 |
| 3C:CXCL8/IL-8 | 0.0025 ± 0.016 | -0.007 ± 0.0042 | 0.012 ± 0.0099 | 0.011 ± 0.023 | 0.0415 ± 0.0092 | 0.024 ± 0.013 | 0.018 ± 0.021 | 0.024 ± 0.016 | 0.0505 ± 0.018 | -0.026 ± 0.018 | -0.0225 ± 0.019 | -0.0025 ± 0.04 | 0.0075 ± 0.046 | 0.0485 ± 0.061 | -0.0005 ± 0.0092 | 0.0005 ± 0.052 | 0.0445 ± 0.093 | 0.012 ± 0.0014 | 0.011 ± 0.0071 |
| 3C:CXCL9/MIG | -0.0095 ± 0.011 | -0.012 ± 0.0014 | -0.0045 ± 0.0021 | -0.0165 ± 0.005 | -0.0055 ± 0.0021 | 0.009 ± 0.0071 | -0.001 ± 0.0014 | 0.0025 ± 0.012 | 0.0105 ± 0.023 | -0.01 ± 0.0028 | -0.0095 ± 0.0021 | 0.0025 ± 0.0035 | -0.0025 ± 0.012 | -0.0005 ± 0.00071 | 0.0005 ± 0.013 | 0.003 ± 0.0071 | 0.016 ± 0.025 | -0.005 ± 0.0085 | -0.002 |
| 3C:HLA-DR | -0.006 ± 0.02 | -0.002 ± 0.016 | -0.005 ± 0.014 | -0.017 ± 0.0014 | -0.0555 ± 0.00071 | -0.125 ± 0.011 | -0.0015 ± 0.0092 | -0.007 ± 0.0071 | -0.005 ± 0.0099 | -0.0255 ± 0.013 | -0.0125 ± 0.016 | -0.0045 ± 0.013 | 0.002 ± 0.0014 | 0.0075 ± 0.0078 | 0.006 ± 0.0028 | 0.0005 ± 0.021 | 0.0145 ± 0.03 | 0.0055 ± 0.039 | -0.001 ± 0.062 |
| 3C:Proliferation | -0.0385 ± 0.049 | -0.038 ± 0.061 | -0.03 ± 0.031 | -0.0605 ± 0.011 | -0.0635 ± 0.069 | -0.334 ± 0.024 | 0.0005 ± 0.028 | -0.003 ± 0.089 | -0.013 ± 0.0085 | -0.0165 ± 0.00071 | 0.005 ± 0.023 | 0.014 ± 0.041 | -0.056 ± 0.048 | -0.111 ± 0.0092 | 0.008 ± 0.023 | 0.0205 ± 0.00071 | -0.0025 ± 0.018 | -0.0185 ± 0.074 | 0.0405 ± 0.016 |
| 3C:SRB | -0.0075 ± 0.019 | -0.013 ± 0.0014 | -0.019 ± 0.023 | -0.01 ± 0.011 | -0.0125 ± 0.0078 | -0.139 ± 0.014 | -0.004 ± 0.014 | -0.0025 ± 0.0078 | 0 ± 0.018 | -0.0045 ± 0.0064 | -0.0025 ± 0.012 | 0.0025 ± 0.021 | 0.006 ± 0.0071 | 0.004 ± 0.0042 | -0.02 ± 0.021 | 0.0105 ± 0.0092 | 0.0075 ± 0.0064 | 0.0095 ± 0.012 | 0.01 ± 0.025 |
| 4H:CCL2/MCP-1 | -0.0155 ± 0.032 | -0.039 ± 0.031 | 0.029 ± 0.04 | 0.002 ± 0.027 | -0.033 ± 0.0028 | -0.136 ± 0.031 | -0.009 ± 0.0014 | 0.007 ± 0.0085 | -0.006 ± 0.0057 | -0.007 ± 0.027 | -0.0215 ± 0.011 | -0.0265 ± 0.021 | -0.0055 ± 0.019 | 0.016 ± 0.064 | -0.0345 ± 0.012 | -0.035 ± 0.0042 | -0.0105 ± 0.026 | -0.0625 ± 0.021 | -0.0615 ± 0.013 |
| 4H:CCL26/Eotaxin-3 | 0.0095 ± 0.037 | 0.0315 ± 0.029 | 0.0275 ± 0.016 | -0.0015 ± 0.005 | -0.0285 ± 0.028 | -0.1 ± 0.0071 | 0.016 | 0.006 ± 0.048 | -0.009 ± 0.05 | 0.0215 ± 0.023 | 0.0385 ± 0.023 | 0.0485 ± 0.032 | -0.001 ± 0.016 | -0.0425 ± 0.026 | 0.06 ± 0.045 | 0.0245 ± 0.059 | 0.041 ± 0.064 | -0.0435 ± 0.012 | -0.0535 ± 0.037 |
| 4H:CD62P/P-selectin | -0.017 | -0.017 ± 0.031 | 0.0195 ± 0.029 | -0.006 ± 0.014 | 0.055 ± 0.062 | -0.0045 ± 0.012 | -0.033 ± 0.072 | -0.0065 ± 0.044 | -0.01 ± 0.0014 | -0.0515 ± 0.06 | -0.058 ± 0.061 | -0.0135 ± 0.053 | 0.0115 ± 0.079 | 0.0095 ± 0.073 | -0.0155 ± 0.025 | -0.02 ± 0.0028 | 0.005 ± 0.013 | 0.0165 ± 0.0092 | 0.035 ± 0.031 |
| 4H:CD87/uPAR | 0.0335 ± 0.013 | 0.044 ± 0.033 | 0.006 ± 0.038 | -0.01 ± 0.011 | 0.0115 ± 0.013 | -0.0605 ± 0.047 | -0.015 ± 0.025 | 0.0015 ± 0.019 | -0.0095 ± 0.0035 | 0.0585 ± 0.04 | 0.0055 ± 0.0035 | -0.024 ± 0.025 | 0.0215 ± 0.019 | 0.047 ± 0.044 | -0.0665 ± 0.029 | -0.027 ± 0.035 | -0.047 ± 0.064 | -0.0115 ± 0.033 | -0.0295 ± 0.05 |
| 4H:CD106/VCAM-1 | -0.0145 ± 0.005 | -0.021 ± 0.0085 | -0.007 ± 0.0057 | -0.0245 ± 0.011 | -0.0165 ± 0.015 | -0.08 ± 0.034 | -0.002 ± 0.021 | -0.013 ± 0.0099 | -0.0045 ± 0.015 | -0.0215 ± 0.005 | -0.0345 ± 0.026 | 0.0155 ± 0.012 | -0.01 ± 0.0028 | -0.0385 ± 0.0035 | 0.0125 ± 0.016 | 0.006 ± 0.035 | 0.0155 ± 0.039 | -0.0135 ± 0.016 | -0.0015 ± 0.03 |
